The test system of this test is activity of the sympathetic nerve. The experiment in a line: Test of measuring sympathetic nerve activity: power spectrum analysis of systolic blood pressure fluctuation (SBP-LF) when smelling the aroma. Type of test: in vivo, human test subjects. Here is the method: The test samples were prepared by diluting ethyl 4-methoxybenzoate with ethanol to a concentration of 0.1 mass %, and how the aromas of those test samples influenced the sympathetic nerve activity was tested.
(Test Method of Measuring Sympathetic Nerve Activity)
A heart beat interval or blood pressure constantly change in a complex manner even at rest, and is under control of multiple nervous systems representing the sympathetic nerve and the parasympathetic nerve. Thus, it is known that the activity of respective nervous systems can be calculated by analyzing the frequency of a heart beat interval variation (a heart beat interval fluctuation) or a blood pressure variation (a blood pressure fluctuation). […] The activity of the sympathetic nerve is quantified from the intensity of the low frequency component (SBP-LF), and an influence of an aroma given off from the test sample on the activity of the sympathetic nerve was evaluated. […]
A tonometry sensor was fitted at a carpal radius […] of a test subject, and is connected to a patient monitor for continuous measurement of blood pressure. […] Continuously measured blood pressure data was taken in a personal computer to undergo power spectrum analysis of the blood pressure fluctuation in systole using automatic nervous system activity analytical software. […]

Turning to `CCOC(=O)c1ccc(OC)cc1` [ethyl 4-methoxybenzoate], the “activity of the sympathetic nerve (determination from SBP-LF ratio)” value (six test subjects in their 20's smelling aroma of 0.1 mass % test sample) is “the activity of the sympathetic nerve quieted down”. The “SBP-LF ratio (SBP-LF value when smelling the aroma divided by SBP-LF value when not smelling the aroma)” value (six test subjects in their 20's, 0.1 mass % in ethanol, 20 μl soaked into cotton stuck below the nose, ethanol volatilized, 25° C., humidity 45%) was “smaller than 1”.

These data come from patent US20130143964A1, “S[…], AND COSMETIC COMPOSITION, FOOD, AND SUNDRY ARTICLE CONTAINING THE SAME” (priority 2010, published 2013).
